Reference: patent US9234186B2, “Star-worm luciferase” (OLYMPUS CORPORATION, priority 2011, dated 2016)
Where two headings read alike, the source gives them in different places.

Experiments:
[1] = tested on: CBR luciferase derived from click beetle; test: Km determination for known luciferase CBR (luminescence kinetics); assay type: biochemical; conditions: 0.1 M Tris-HCl pH 8.0; enzyme solution with 1 mM D-luciferin, 8 mM MgSO4; read-out: Km for ATP
[2] = tested on: Diplocladon sp. 1 star-worm luciferase, wild type, SEQ ID NO: 1; test: Km determination for star-worm luciferase (luminescence kinetics); assay type: biochemical; conditions: 0.1 M Tris-HCl pH 8.0, 8 mM MgSO4
Protocol: The measurements were carried out ten times for each sample, and the average of absorbance was used for the calculation.
A solution of 0.1 M Tris-HCl (pH 8.0) containing each purified luciferase, 4 mM of ATP, and 8 mM of MgSO4 was connected to the standard pump of a luminometer, and measurement was carried out at the same time of adding 50 μl of the solution to the well. A Luminescensor (ATTO) was used for the measurement. Measurement was repeated three times for each luciferin concentration.
The peak intensity of the obtained photon count value was plotted with respect to luciferin concentration S, defining the initial rate as V. The plots were subjected to curve fitting of Michaelis Menten type, thereby giving Km values. The curve fitting was performed by a nonlinear least-squares method, and search of parameter was performed by a Newton method.
Measurement of Km Value with Respect to ATP
Under various ATP concentrations, the luminous intensity of the obtained luciferase was measured. Based on the results, Km values was determined with respect to ATP.
Various eight types of ATP solutions were prepared by adding ATP to 0.1 M Tris-HCl (pH 8.0). These solutions contain ATP at final concentration of 10, 20, 40, 80, 160, 320, 480, or 640 μM. These ATP solutions were each injected into a 96-well microplate at a volume of 50 μl. […]

HeLa cell = test: Luminous intensity expressed in HeLa cell, star-worm luciferase vs P. pyralis luciferase (Example 3); assay type: cell-based; conditions: 2 mM D-luciferin, 25° C., 90 minutes, normalised to sea pansy luciferase internal control, codon-optimized gene with Kozak sequence
Protocol: The luminous intensities when expressed in a HeLa cell were compared between a star-worm luciferase and P. pyralis luciferase.
Regarding a star-worm luciferase, Kozak sequence was added to a nucleic acid optimized for expression in a mammalian cell and then inserted into between SgfI site and PmeI site of a multicloning site of pF9A CMV hRLuc neo Flexi vector (Promega). According to addition of Kozak sequence, an amino acid encoded by the codon immediately after initiation codon, proline, was changed to alanine. […] For the purpose of comparison, Kozak sequence was added to a known P. pyralis nucleic acid containing an optimized gene for expression in a mammalian cell, and then inserted into apF9A CMV hRLuc neo Flexi vector in a similar manner.
Each of the two types of plasmids obtained by the aforementioned manner was introduced into HeLa cells by means of lipofection method, and 24 hours later the cells were washed with PBS. […] According to the figure, the star-worm luciferase induced luminescence having 1.5 times the luminous intensity in a HeLa cell of that induced by P. Pyralis luciferase.

**Q.** With `Nc1ncnc2c1ncn2[C@@H]1O[C@H](COP(=O)(O)OP(=O)(O)OP(=O)(O)O)[C@@H](O)[C@H]1O` [ATP, Adenosine triphosphate] as the molecule, how does the Km [1] read?
**A.** 47 µM

**Q.** And the Km ([2]; enzyme solution with 1 mM D-luciferin, read-out: Km for ATP)?
**A.** 110 µM

**Q.** With `O=C(O)[C@H]1CSC(c2nc3ccc(O)cc3s2)=N1` [D-luciferin] as the molecule, how does the Km ([2]; read-out: Km for D-luciferin, enzyme solution with 4 mM ATP) read?
**A.** 38.9 µM

B1: star-worm luciferase: Novel luciferase cloned from star-worm Diplocladon sp. 1, amino acid sequence SEQ ID NO: 1 (protein, listed as Diplocladon sp.)
chain: MPNEIVLHGAKPRDPLDLGTAGSQLFRSLTQFSYLREALVDAHTEQVVSYADILENSCRLAICFEKYGLRQNSVIAVCSENSAIFFYPVIAALYMGIITATVNDNYTERELFDTLNISKPELVFCSKKAIKNLTQLKNHIDFIKKLVVLDSDEDIGEVESLANFMKRYSESVIDVRNFKPRDFDAKEQVALIMSSSGTTGLPKGVVLTHRNLSVRFVHCKDPLFGTRTVPSTSILSIVPFHHAFGMFTTLSYFIVGLRVILLKRFEEEFFLSTIEKYRIPTIVLAPPVMVFLAKSPLVDQYDVSSIREVATGGAPVGIEVAEAVAKRLKINGILQGYGLTETCCAVLITPHDHVKTGSTGKVAPYVQAKVVDLSTGKSLGPNKRGELCFKSEIIMKGYFNNIKATEEAIDKEGWLHSGDVGYYDEDGHFYVVDRLKELIKYKGYQVAPAELEWLLLQHPAIKDAGVTGVPDEAAGELPGACIVLEEGHSLTEQEVIEYVAERVSPTKRIRGGVVFVDDIPKGATGKLVRSELRRMLSQKKSKL
**Q.** With B1 as the molecule, how does the “luminous intensity relative to that induced by P. pyralis firefly luciferase” value (HeLa cell) read?
**A.** 1.5 times
